Experimental data reported in patent US10202370B2, “Benzimidazole derivatives as selective proteine kinase inhibitors” (AB SCIENCE, priority 2013, dated 2019).

Molecular target: c-kit WT (Homo sapiens (Human), UniProt P10721)
Test: Proliferation assay (CellTiter-Blue) on BaF3 Kit WT cell line
Type: cell-based
Details: BaF3 Kit WT cell line (murine Ba/F3 expressing Human Kit WT, with murine SCF), 48 hours
Procedure, shortened: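 Ba/F3 cells expressing human Kit WT, maintained in RPMI/10% FCS with 250 ng/ml murine SCF, were seeded at 2.10^4 cells/well and exposed to ½ serial dilutions (0–10 μM) for 48 h at 37° C. Viability was measured by CellTiter-Blue fluorescence (544Ex/590Em, 4 h) in triplicate as % of untreated proliferation.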

Sequence of c-kit WT (P10721 26-976): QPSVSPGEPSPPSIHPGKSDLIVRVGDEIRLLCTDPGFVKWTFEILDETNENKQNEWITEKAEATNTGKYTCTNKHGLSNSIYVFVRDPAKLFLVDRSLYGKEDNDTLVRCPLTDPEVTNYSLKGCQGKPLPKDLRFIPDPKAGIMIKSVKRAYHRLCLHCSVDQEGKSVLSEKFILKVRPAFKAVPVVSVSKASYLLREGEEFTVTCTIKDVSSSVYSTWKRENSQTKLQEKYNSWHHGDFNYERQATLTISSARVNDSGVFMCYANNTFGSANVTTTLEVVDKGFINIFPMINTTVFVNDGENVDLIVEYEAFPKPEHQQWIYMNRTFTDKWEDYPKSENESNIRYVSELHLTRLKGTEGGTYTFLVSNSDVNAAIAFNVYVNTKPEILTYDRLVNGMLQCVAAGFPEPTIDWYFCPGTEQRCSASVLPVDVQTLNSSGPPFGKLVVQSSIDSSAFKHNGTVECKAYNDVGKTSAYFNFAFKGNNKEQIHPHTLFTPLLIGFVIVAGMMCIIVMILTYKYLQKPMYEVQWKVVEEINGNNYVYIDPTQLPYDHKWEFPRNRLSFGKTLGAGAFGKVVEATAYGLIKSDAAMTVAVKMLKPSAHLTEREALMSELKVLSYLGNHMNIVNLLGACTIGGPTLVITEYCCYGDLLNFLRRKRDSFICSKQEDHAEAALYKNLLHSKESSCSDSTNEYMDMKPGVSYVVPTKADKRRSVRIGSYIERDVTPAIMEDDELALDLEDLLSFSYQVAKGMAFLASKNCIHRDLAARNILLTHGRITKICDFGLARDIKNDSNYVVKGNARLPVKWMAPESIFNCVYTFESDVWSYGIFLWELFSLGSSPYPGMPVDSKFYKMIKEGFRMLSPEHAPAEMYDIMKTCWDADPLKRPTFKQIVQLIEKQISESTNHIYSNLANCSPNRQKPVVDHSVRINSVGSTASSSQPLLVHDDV

| SMILES | IC50 [nM] |
| --- | --- |
| Cc1cc2nc(-c3cc(CN4CCN(C)CC4)cc(-c4cnco4)c3)[nH]c2cc1Nc1nccc(-c2cccnc2)n1 [Compound 039, {6-Methyl-2-[3-(4-methyl-piperazin-1-ylmethyl)-5-oxazol-5-yl-phenyl]-3H-benzoimidazol-5-yl}-(4-pyridin-3-yl-pyrimidin-2-yl)-amine] | 1000 to 10000 |
| Cc1cc2nc(-c3cc(CN4CCOCC4)cc(C(F)(F)F)c3)[nH]c2cc1Nc1nc(-c2cccnc2)cs1 [Compound 020, [6-Methyl-2-(3-morpholin-4-ylmethyl-5-trifluoromethyl-phenyl)-3H-benzoimidazol-5-yl]-(4-pyridin-3-yl-thiazol-2-yl)-amine] | ≤ 1000 |
| Cc1cc2c(cc1Nc1nc(-c3cccnc3)cs1)nc(-c1cccc(OC(F)(F)F)c1)n2C [Compound 086, [1,6-Dimethyl-2-(3-trifluoromethoxy-phenyl)-1H-benzoimidazol-5-yl]-(4-pyridin-3-yl-thiazol-2-yl)-amine] | ≤ 1000 |
| Cc1cc2nc(-c3cccc(S(C)(=O)=O)c3)[nH]c2cc1Nc1nccc(-c2cccnc2)n1 [Compound 038, [2-(3-Methanesulfonyl-phenyl)-6-methyl-3H-benzoimidazol-5-yl]-(4-pyridin-3-yl-pyrimidin-2-yl)-amine] | 1000 to 10000 |
| Cc1cc2[nH]c(-c3cc(F)cc(C(F)(F)F)c3)nc2cc1Nc1nc(-c2ccncc2)cs1 [Compound 149, [2-(3-Fluoro-5-trifluoromethyl-phenyl)-6-methyl-1H-benzoimidazol-5-yl]-(4-pyridin-4-yl-thiazol-2-yl)-amine] | ≤ 1000 |
| Cc1cc2nc(-c3cc(CN4CCCCC4)cc(C(F)(F)F)c3)[nH]c2cc1Nc1nccc(-c2cccnc2)n1 [Compound 035, [6-Methyl-2-(3-piperidin-1-ylmethyl-5-trifluoromethyl-phenyl)-3H-benzoimidazol-5-yl]-(4-pyridin-3-yl-pyrimidin-2-yl)-amine] | ≤ 1000 |
| Cc1cc2nc(-c3cccc(C(F)F)c3)[nH]c2cc1Nc1nccc(-c2cccnc2)n1 [Compound 030, [2-(3-Difluoromethyl-phenyl)-6-methyl-3H-benzoimidazol-5-yl]-(4-pyridin-3-yl-pyrimidin-2-yl)-amine] | ≤ 1000 |
| Cc1cccc(-c2nc3cc(Nc4nc(-c5ccnc(Cl)c5)cs4)c(C)cc3[nH]2)c1 [Compound 107, [4-(2-Chloro-pyridin-4-yl)-thiazol-2-yl]-(6-methyl-2-m-tolyl-1H-benzoimidazol-5-yl)-amine] | ≤ 1000 |
| Cc1cc2c(cc1Nc1nc(-c3cccnc3)cs1)nc(-c1cccc(C(C)C)c1)n2C [Compound 140, [2-(3-Isopropyl-phenyl)-1,6-dimethyl-1H-benzoimidazol-5-yl]-(4-pyridin-3-yl-thiazol-2-yl)-amine] | ≤ 1000 |
| Cc1cc2nc(-c3cccc(C(F)F)c3)[nH]c2cc1Nc1nc(-c2cccnc2)cs1 [Compound 025, [2-(3-Difluoromethyl-phenyl)-6-methyl-3H-benzoimidazol-5-yl]-(4-pyridin-3-yl-thiazol-2-yl)-amine] | ≤ 1000 |
| Cc1cc2nc(-c3ccc(C)c(C(F)(F)F)c3)[nH]c2cc1Nc1nccc(-c2cccnc2)n1 [Compound 041, [6-Methyl-2-(4-methyl-3-trifluoromethyl-phenyl)-3H-benzoimidazol-5-yl]-(4-pyridin-3-yl-pyrimidin-2-yl)-amine] | ≤ 1000 |
| Cc1cccc(-c2nc3cc(C)c(Nc4nccc(-c5cccnc5)n4)cc3[nH]2)c1 [Compound 012, (6-Methyl-2-m-tolyl-3H-benzoimidazol-5-yl)-(4-pyridin-3-yl-pyrimidin-2-yl)-amine] | 1000 to 10000 |
| Cc1cc2c(cc1Nc1nc(-c3ccncc3)cs1)nc(-c1cccc(N3CCN(C)CC3)c1)n2C [Compound 096, {1,6-Dimethyl-2-[3-(4-methyl-piperazin-1-yl)-phenyl]-1H-benzoimidazol-5-yl}-(4-pyridin-4-yl-thiazol-2-yl)-amine] | 1000 to 10000 |
| Cc1cc2nc(-c3cccc(OC(F)(F)F)c3)[nH]c2cc1Nc1nc(-c2ccncc2)cs1 [Compound 047, [6-Methyl-2-(3-trifluoromethoxy-phenyl)-3H-benzoimidazol-5-yl]-(4-pyridin-4-yl-thiazol-2-yl)-amine] | ≤ 1000 |
| Cc1cc2nc(-c3cc(CN4CCOCC4)cc(C(F)(F)F)c3)[nH]c2cc1Nc1nccc(-c2cccnc2)n1 [Compound 028] | ≤ 1000 |
| Cc1cc2c(cc1Nc1nc(-c3cccnc3)cs1)nc(-c1ccc(C(F)F)cc1)n2C [Compound 093, [2-(4-Difluoromethyl-phenyl)-1,6-dimethyl-1H-benzoimidazol-5-yl]-(4-pyridin-3-yl-thiazol-2-yl)-amine] | ≤ 1000 |
| Cc1cccc(-c2nc3cc(Nc4nc(-c5cccc(C#N)c5)cs4)c(C)cc3[nH]2)c1 [Compound 129, 3-[2-(6-Methyl-2-m-tolyl-1H-benzoimidazol-5-ylamino)-thiazol-4-yl]-benzonitrile] | ≤ 1000 |
| Cn1c(-c2cccc(C(F)(F)F)c2)nc2cc(Nc3nc(-c4cccnc4)cs3)ccc21 [Compound 091, [1-Methyl-2-(3-trifluoromethyl-phenyl)-1H-benzoimidazol-5-yl]-(4-pyridin-3-yl-thiazol-2-yl)-amine] | 1000 to 10000 |

| SMILES | IC50 [nM] |
| --- | --- |
| Cc1cc2nc(-c3cccc(C#N)c3)[nH]c2cc1Nc1nc(-c2cccnc2)cs1 [Compound 010, 3-[5-Methyl-6-(4-pyridin-3-yl-thiazol-2-ylamino)-1H-benzoimidazol-2-yl]-benzonitrile] | ≤ 1000 |
| Cc1cc2[nH]c(-c3ccc(C(F)F)cc3)nc2cc1Nc1nc(-c2cccnc2)cs1 [Compound 097, [2-(4-Difluoromethyl-phenyl)-6-methyl-1H-benzoimidazol-5-yl]-(4-pyridin-3-yl-thiazol-2-yl)-amine] | ≤ 1000 |
| CCn1c(-c2cccc(C(F)(F)F)c2)nc2cc(Nc3nc(-c4cccnc4)cs3)c(C)cc21 [Compound 110, [1-Ethyl-6-methyl-2-(3-trifluoromethyl-phenyl)-1H-benzoimidazol-5-yl]-(4-pyridin-3-yl-thiazol-2-yl)-amine] | ≤ 1000 |
| CCn1c(-c2cccc(C(F)F)c2)nc2cc(Nc3nc(-c4ccncc4)cs3)c(C)cc21 [Compound 103] | ≤ 1000 |
| Cc1cc2nc(-c3cccc(OC(F)(F)F)c3)n(C)c2cc1Nc1nc(-c2cccnc2)cs1 [Compound 117, [3,6-Dimethyl-2-(3-trifluoromethoxy-phenyl)-3H-benzoimidazol-5-yl]-(4-pyridin-3-yl-thiazol-2-yl)-amine] | 1000 to 10000 |
| Cc1cc2nc(Cc3ccc(C(F)(F)F)cc3)[nH]c2cc1Nc1ncc(-c2ccncc2)o1 [Compound 054, [6-Methyl-2-(4-trifluoromethyl-benzyl)-3H-benzoimidazol-5-yl]-(5-pyridin-4-yl-oxazol-2-yl)-amine] | 1000 to 10000 |
| Cc1cc2nc(-c3ccc(C(F)(F)F)cc3)[nH]c2cc1Nc1nccc(-c2cccnc2)n1 [Compound 027, [6-Methyl-2-(4-trifluoromethyl-phenyl)-3H-benzoimidazol-5-yl]-(4-pyridin-3-yl-pyrimidin-2-yl)-amine] | 1000 to 10000 |
| Cc1cc2[nH]c(-c3cccc(C(F)(F)F)c3)nc2cc1Nc1nc(-c2cccc(C#N)c2)cs1 [Compound 130, 3-{2-[6-Methyl-2-(3-trifluoromethyl-phenyl)-1H-benzoimidazol-5-ylamino]-thiazol-4-yl}-benzonitrile] | ≤ 1000 |
| Cc1cc2nc(-c3ccc(C(F)(F)F)cc3)[nH]c2cc1Nc1nc(-c2ccncc2)cs1 [Compound 050, [6-Methyl-2-(4-trifluoromethyl-phenyl)-3H-benzoimidazol-5-yl]-(4-pyridin-4-yl-thiazol-2-yl)-amine] | ≤ 1000 |
| C#Cc1cccc(-c2nc3cc(Nc4nc(-c5cccnc5)cs4)c(C)cc3n2C)c1 [Compound 146, [2-(3-Ethynyl-phenyl)-1,6-dimethyl-1H-benzoimidazol-5-yl]-(4-pyridin-3-yl-thiazol-2-yl)-amine] | ≤ 1000 |
| Cc1cc2c(cc1Nc1nc(-c3ccc(C#N)cc3)cs1)nc(-c1cc(F)cc(C(F)(F)F)c1)n2C [Compound 138, 4-{2-[2-(3-Fluoro-5-trifluoromethyl-phenyl)-1,6-dimethyl-1H-benzoimidazol-5-ylamino]-thiazol-4-yl}-benzonitrile] | ≤ 1000 |
| Cc1cc2nc(-c3cccc(OCCN(C)C)c3)[nH]c2cc1Nc1nccc(-c2cccnc2)n1 [Compound 016, {2-[3-(2-Dimethylamino-ethoxy)-phenyl]-6-methyl-3H-benzoimidazo1-5-yl}-(4-pyridin-3-yl-pyrimidin-2-yl)-amine] | 1000 to 10000 |
| Cc1cc2nc(-c3cccc(CN4CCOCC4)c3)[nH]c2cc1Nc1nccc(-c2cccnc2)n1 [Compound 018, [6-Methyl-2-(3-morpholin-4-ylmethyl-phenyl)-3H-benzoimidazol-5-yl]-(4-pyridin-3-yl-pyrimidin-2-yl)-amine] | 1000 to 10000 |
| C#Cc1cccc(-c2nc3cc(Nc4nc(-c5cccnc5)cs4)c(C)cc3[nH]2)c1 [Compound 139, [2-(3-Ethynyl-phenyl)-6-methyl-1H-benzoimidazol-5-yl]-(4-pyridin-3-yl-thiazol-2-yl)-amine] | ≤ 1000 |
| Cc1cc2nc(-c3cccc(C(F)(F)F)c3)[nH]c2cc1Nc1nc(-c2ccncc2)cs1 [Compound 033, [6-Methyl-2-(3-trifluoromethyl-phenyl)-3H-benzoimidazol-5-yl]-(4-pyridin-4-yl-thiazol-2-yl)-amine] | ≤ 1000 |
| Cc1cc2[nH]c(-c3cccc(C(C)C)c3)nc2cc1Nc1nc(-c2ccc(C#N)cc2)cs1 [Compound 143, 4-{2-[2-(3-Isopropyl-phenyl)-6-methyl-1H-benzoimidazol-5-ylamino]-thiazol-4-yl}-benzonitrile] | ≤ 1000 |
| Cc1cc2c(cc1Nc1nc(-c3ccncc3)cs1)nc(-c1ccc(C(F)F)cc1)n2C [Compound 094, [2-(4-Difluoromethyl-phenyl)-1,6-dimethyl-1H-benzoimidazol-5-yl]-(4-pyridin-4-yl-thiazol-2-yl)-amine] | ≤ 1000 |
